The results in this text go back to US7253207B2, “Quinones as disease therapies” (Cellgate, Inc., priority 1999, dated 2007).

The subject of one test is PC-3. Description: MTT assay, PC-3 prostate tumor cells. Type of test: cell-based, human. As to the method: (§1) Cell Culture: The human lung adenocarcinoma cell line, A549, and human prostatic cancer cell line, DUPRO, were a gift from Dr. M. Eileen Dolan, University of Chicago, Department of Medicine. A549 was grown in Ham's F-12K medium (Fisher Scientific, Itasca, Ill.) supplemented with 10% fetal bovine serum and 2 mM L-glutamine. DUPRO was grown in RPMI-1640 supplemented with 10% fetal bovine serum. The human colon carcinoma cell line, HT29, and the human breast carcinoma cell line, MCF7, were obtained from the American Type Culture Collection, Rockville, Md. HT29 cells were grown in McCoy's 5A medium (Gibco, BRL, Gaithersburg, Md.) supplemented with 10% fetal bovine serum. MCF7 cells were grown in Richter's Improved Modified Eagle's medium supplemented with 10% fetal bovine serum and 2.2 g/L sodium bicarbonate. The human prostate adenocarcinoma cell lines, LNCAP, PC-3 and DU145, were gifts from Dr. George Wilding, University of Wisconsin Comprehensive Cancer Center and the Department of Medicine, and were grown in Dulbecco's Modified Eagle's medium supplemented with a 5% fetal bovine serum. The malignant glioma cell line, U251MG NCI was obtained from the brain tumor tissue bank at the University of California, San Francisco Department of Neurosurgery, and was grown in Dulbecco's Modified Eagle's medium supplemented with 10% fetal bovine serum. DUPRO, A549 and MCF7 cells were grown in 100 units/mL penicillin and 100 μg/mL streptomycin. HT29 and U251MG NCI cells were grown in 50 g/μL gentamycin. LNCAP, PC-3 and DU145 cells were maintained in 1% antibiotic antimycotic solution (Sigma, St. Louis, Mo.). All cell cultures were maintained at 37° C. in 5% CO2/95% humidified air.
(§2) MTT assay. Exponentially growing monolayer cells were plated in 96 well plates at a density of 500 cells/well and allowed to grow for 24 h. Serially diluted drug solutions were added such that the final drug concentrations in the treatment media were between 0 and 35 μM. Cells were incubated with drug at either 4 hr or 72 hr. After 4 hr and 72 hr treatment, drugs were removed, fresh media (without) drug (100 uL) was added and cells were incubated for 6 days. After six days, 25 μL of a Dulbecco's phosphate-buffered saline solution containing 5 mg/mL of MTT (Thiazolyl blue) (Sigma) was added to each well and incubated for 4 h at 37° C. Then 100 μL of lysis buffer (20% sodium dodecyl sulfate, 50% N,N-dimethylformamide and 0.8% acetic acid, pH 4.7) was added to each well and incubated for an additional 22 h. A microplate reader (E max, Molecular Devices, Sunnyvale, Calif.) set at 570 nm was used to determine the optical density. Results were plotted as a ratio of the optical density in drug treated wells to the optical density in wells treated with vehicle alone. Plotting and estimation of ID50 values were accomplished with manufacturer supplied software.
Background: Tetrazolium assays rely on reduction of a dye to a coloured formazan, in cell work by metabolically active cells.

In the next test the test system is DUPRO. Description: MTT assay, DUPRO prostate tumor cells. In kind it is cell-based, human. The note with it: Table 1, treatment time not stated. How it is done:
as §1
MTT assay. Exponentially growing monolayer cells were plated in 96 well plates at a density of 500 cells/well and allowed to grow for 24 h. Serially diluted drug solutions were added such that the final drug concentrations in the treatment media were between 0 and 35 μM. […] A microplate reader (E max, Molecular Devices, Sunnyvale, Calif.) set at 570 nm was used to determine the optical density. […]

A further test deals with DU145. Briefly: MTT assay, DU145 prostate tumor cells. In kind it is cell-based, human. The settings on record: Table 1; for ID50 (μM) of different prostate cells DU145: MTT assay, treatment time not stated. As to the method:
as §1, §2

A further test concerns A549. Description: MTT assay, A549 lung tumor cells. The settings on record: Homo sapiens, read-out: ID50 (μM) of different Tumor cells Lung A549. Type of test: cell-based. As to the method:
as §1, §2

The subject of another test is HT-29. Description: MTT assay, HT-29 colon tumor cells. Type of test: cell-based. The settings on record: Homo sapiens, Table 2, treatment time not stated, read-out: ID50 (μM) of different Tumor cells Colon HT-29. How it is done: as §1, §2
For a further test, the system named is U251-MG. Briefly: MTT assay, U251-MG brain tumor cells. In kind it is cell-based, human. As to the method: as §1, with “The malignant glioma cell line, U251MG NCI was obtained from the brain tumor tissue bank at the University of California, San Francisco Department of Neurosurgery, and was grown in Dulbecco's Modified Eagle's medium supplemented with 10% fetal bovine serum. DUPRO, A549 and MCF7 cells were grown in 100 units/mL penicillin and 100 μg/mL streptomycin. HT29 and U251MG NCI cells were grown in 50 g/μL gentamycin. LNCAP, PC-3 and DU145 cells were maintained in 1% antibiotic antimycotic solution (Sigma, St. Louis, Mo.). All cell cultures were maintained at 37° C. in 5% CO2/95% humidified air.” left out
MTT assay. […] A microplate reader (E max, Molecular Devices, Sunnyvale, Calif.) set at 570 nm was used to determine the optical density. […]

For a further test, the system named is MCF7. Description: MTT assay, MCF7 breast tumor cells. The note with it: Table 2, treatment time not stated. In kind it is cell-based, human. As to the method: as §1, §2
The mark [1] stands for this setting: Homo sapiens, PC-3, Table 1, MTT assay, treatment time not stated, read-out: ID50 (μM) of different prostate cells PC-3.
[2] abbreviates: Table 2, treatment time not stated.

Structures are written as SMILES. Where two headings read alike, the source gives them in different places. *1 amine or outer side, *2 acyl side, *3 side chain or, on linkers, in order; H or OH if unused. Where a SMILES comes first, the peptide text is derived from it. [ ]: non-standard residue; d: D form. The star is where a group is joined. X1 = CC1(C)OC2=C(CC1O*)C(=O)C(=O)c1ccccc12; Morpholide = C1CN(*)CCO1; CO = O=C([*:1])[*:2]; βAla = NCCC(=O)O Where only a bound is given, the exact number is not on record here.

Regarding `O=C1C=C(OCCCCCCO)c2ccccc2C1=O` [SL-11051], the IC50 in the test on PC-3 (setting [1]) came out at 17.1 µM; in the test with A549 (setting [2]), 17.2 µM; in the test on HT-29 it was 20 µM. In addition, the “ID50 (μM) of different prostate cells DUPRO” value in the test with DUPRO was 19.3 µM. In the test with DU145, the “ID50 (μM) of different prostate cells DU145” value is 11.16 µM.
Consider `COC(=O)c1cc(NC(=O)CCCCOC2=CC(=O)C(=O)c3ccccc32)cn1C` [SL-11052], for which, in the test on A549 (setting [2]), the IC50 stood at 26.9 µM.
Take `O=C(OCCCCCCOC1=CC(=O)C(=O)c2ccccc21)OCCCCCCOC1=CC(=O)C(=O)c2ccccc21` [SL-11053]: the IC50 in the test with A549 (setting [2]) came to 7.39 µM; in the test with HT-29 it was 2.8 µM.
The matching figures for `CC(C)(C)C(=O)OC1=CC(=O)C(=O)c2ccccc21` [SL-11054]: greater than 31.2 µM and greater than 31.2 µM.
Take `CC1(C)CCC2=C(O1)c1ccccc1C(=O)C2=O` [SL-11058]: the “ID50 (μM) of different Tumor cells Brain U251-MG” value in the test on U251-MG (Table 4, non-quinone compounds) was greater than 31.25 µM.
For `O=C1C=C(OCCCCCNc2c3ccccc3nc3ccccc23)c2ccccc2C1=O` [SL-11059, Acridine-quinone], the IC50 with PC-3 (setting [1]) was 4.3 µM; in the test with A549 (setting [2]), 15 µM; with HT-29 it was 10.1 µM.
For the molecule `Cl.O=C1C=C(OCCCCCNC2CCCCC2)c2ccccc2C1=O` [SL-11060], the IC50 with A549 (setting [2]) and with HT-29 was greater than 31.2 µM throughout. The “ID50 (μM) of different Tumor cells Breast MCF7” value with MCF7 stood at 17.23 µM. Besides, the “ID50 (μM) of different Tumor cells Brain U251-MG” value with U251-MG (setting [2]) is greater than 31.25 µM.
On to `N#Cc1ccc(OCCCCCCOC2=CC(=O)C(=O)c3ccccc32)cc1` [SL-11062], for which the IC50 stood at 1.71 µM in the test with PC-3 (setting [1]) and 18.6 µM with A549 (setting [2]).
Regarding `CN1CCN(c2ccc3nc(-c4ccc5nc(-c6ccc(O)cc6)[nH]c5c4)[nH]c3c2)CC1` [SL-11063], the IC50 is greater than 31.2 µM in the test with PC-3 (Homo sapiens, PC-3, Table 3, non-quinone structure, MTT assay, read-out: ID50 (μM) of different prostate cells PC-3) and greater than 31.2 µM with A549 (Table 4, non-quinone compounds).
For `O=C1C=C(OCCCCCCCc2ccc(Nc3c4ccccc4nc4ccccc34)cc2)c2ccccc2C1=O` [SL-11064, Quinone-anilinoacridine], the IC50 with PC-3 (setting [1]) turned out to be 0.7 µM; in the test with A549 (setting [2]) it was 9.3 µM. Also, the “ID50 (μM) of different prostate cells DUPRO” value in the test on DUPRO came out at 2.2 µM. Also, the “ID50 (μM) of different prostate cells DU145” value in the test on DU145 was determined as 0.13 µM.
Regarding `O=C1C=C(OCCCCCCOC2=CC(=O)c3ccccc3C2=O)c2ccccc2C1=O` [SL-11065], the IC50 was 1.4 µM in the test with PC-3 (setting [1]) and 2.13 µM in the test on A549 (setting [2]).
The matching figures for `O=C1C=C(OCCCCCCOc2ccc(OC3OC(CO)C(O)C(O)C3O)cc2)c2ccccc2C1=O` (centres unmarked) [SL-11066]: greater than 31.2 µM and greater than 31.2 µM.
The matching figures for `O=C1C=C(OCCCCCCOc2ccccc2)c2ccccc2C1=O` [SL-11068]: 1.5 µM and 24 µM.
As to `CN(C)c1cccc(OC(=O)CCCCOC2=CC(=O)C(=O)c3ccccc32)c1` [SL-11074], the IC50 with PC-3 (setting [1]) was 4.6 µM.
As for `NCCCCCC(=O)OCCCCCCOC1=CC(=O)C(=O)c2ccccc21` [SL-11075], the IC50 in the test with PC-3 (setting [1]) came to 2 µM.
As for `CCCCN(CC1=CC(=O)C(=O)c2ccccc21)C(C)=O` [SL-11087], the IC50 with PC-3 (setting [1]) is 2.4 µM; in the test with A549 (setting [2]), 19.8 µM; in the test on HT-29, 6.05 µM. The “ID50 (μM) of different Tumor cells Breast MCF7” value with MCF7 is 4.0 µM.
For the molecule `CCCCN(CC1=CC(=O)C(=O)c2ccccc21)C(=O)C(F)(F)F` [SL-11088], the IC50 in the test on PC-3 (setting [1]), in the test on A549 (setting [2]) and in the test with HT-29 was greater than 31.2 µM each time. Further, the “ID50 (μM) of different Tumor cells Breast MCF7” value in the test with MCF7 is greater than 31.25 µM.
For `CCCCN/C=C1\C=C(O)C(=O)c2ccccc21` [SL-11089], the IC50 with PC-3 (setting [1]) was 11 µM. Moreover, the “ID50 (μM) of different Tumor cells Breast MCF7” value in the test on MCF7 is greater than 31.25 µM.
Consider `CCCCN(CC1=C(Br)C(=O)C(=O)c2ccccc21)C(C)=O` [SL-11095], for which the IC50 with PC-3 (setting [1]) is 4.2 µM; in the test on A549 (setting [2]), greater than 31.2 µM; with HT-29, 22.1 µM. The “ID50 (μM) of different Tumor cells Breast MCF7” value with MCF7 was found to be 20.6 µM.
The matching figures for `CCCCN(CC1=CC(=O)C(=O)c2ccccc21)C(=O)CCC(=O)N1CCOCC1` [SL-11096]: 3.6 µM, 17.4 µM, 3.4 µM and 3.8 µM.
As for `O=C1C=C(CCCCCCCCc2ccc(Nc3c4ccccc4nc4ccccc34)cc2)c2ccccc2C1=O` [SL-11125, Quinone-acridine], the IC50 worked out at 5.9 µM with PC-3 (setting [1]), 28 µM with A549 (setting [2]) and 5.7 µM with HT-29. Further, the “ID50 (μM) of different prostate cells DUPRO” value in the test with DUPRO was found to be 7.9 µM. In the test with DU145, the “ID50 (μM) of different prostate cells DU145” value worked out at 0.13 µM. Moreover, the “ID50 (μM) of different Tumor cells Breast MCF7” value with MCF7 was found to be 5.1 µM.
For the molecule `CC(C)CC(NC(=O)C(CCCCN)NC(=O)C(CO)NC(=O)N1CCOCC1)C(=O)NC(CCC(N)=O)C(=O)NCCC(=O)OC1CC2=C(OC1(C)C)c1ccccc1C(=O)C2=O` (stereo not drawn) [SL-11147, Morpholino-Ser-Lys-Leu-Gln-β-Ala-β-Lapachone] ({Morpholide-CO}-SKLQ[βAla]-X1; configuration not given here), the IC50 in the test on PC-3 (Table 1, 4 hr, read-out: ID50 (μM) PC-3 (4 hr)) turned out to be 6.3 µM; in the test on PC-3 (Table 1, 72 hr, read-out: ID50 (μM) PC-3 (72 hr)) it was 1.24 µM; in the test with DU145 (4 hr, read-out: ID50 (μM) DU145 (4 hr)), 28.1 µM; in the test with DU145 (72 hr, read-out: ID50 (μM) DU145 (72 hr)), 2.01 µM.
